# Assay results published in article PMC6868087, “Exploiting Curcumin Synergy With Natural Products Using Quantitative Analysis of Dose–Effect Relationships in an Experimental In Vitro Model of Osteoarthritis” (Frontiers in Pharmacology, 2019).
# Read-outs that look alike come from different tables or passages of the source.
# Legend:
# [1] = test system: Human articular chondrocytes; assay: MTT assay, cell viability of chondrocytes; type: cell-based; conditions: IC50 concentrations, 24 h
# Protocol: Human articular chondrocytes (ScienCell, CA, USA) were cultured in the specific Chondrocyte Medium (Cat. 4651; ScienCell, CA, USA) supplemented with 1% antibiotic mixture, in 5% CO2 humidified incubator at 37°C. The medium was renewed every 2 days and confluent chondrocytes were trypsinized, subdivided, and re-plated. In these experiments chondrocytes from passage 3 to 7 were used. Cell viability was evaluated by MTT assay. Chondrocytes were grown and then treated with IC50 doses when reached confluence. In particular, flavocoxid, curcumin, flavocoxid + curcumin, β-caryophyllene, and β-caryophyllene + curcumin were tested in a 96-well plate at a density of 8 × 10^4 cells/well for 24 h to evaluate the cytotoxic effect. The tetrazolium dye MTT 3-(4,5-dimethylthiazol-2-yl)-2,5-diphenyltetrazolium bromide (Sigma Aldrich, Milan, Italy) was dissolved in sterile filtered PBS, and 20 µl of the mixture were added into each well 5 h before the end of the 24 h of incubation. Medium was removed and the insoluble formazan crystals were dissolved with dimethyl sulfoxide (DMSO; 200 µl/well) following 5 h. The difference between the values obtained at 540 and 620 nm of absorbance was used to calculate the average of replicates and to evaluate cytotoxicity. Results were expressed as % of cell viability compared to untreated cells and reported as means and SD.
# STAT3 mRNA expression = STAT3 mRNA expression by RTqPCR in LPS-stimulated chondrocytes; type: cell-based, human; conditions: IC50 doses
# Protocol: (§1) Human articular chondrocytes (ScienCell, CA, USA) were cultured in the specific Chondrocyte Medium (Cat. 4651; ScienCell, CA, USA) supplemented with 1% antibiotic mixture, in 5% CO2 humidified incubator at 37°C. The medium was renewed every 2 days and confluent chondrocytes were trypsinized, subdivided, and re-plated. In these experiments chondrocytes from passage 3 to 7 were used. Chondrocytes were cultured in six well culture plates at a density of 2.5 × 10^5 cells/well. Sixteen hours after seeding, a set of plates were treated with LPS (2 μg/ml; Escherichia coli serotype 055:B5; […] Total RNA was isolated from human chondrocytes for RTqPCR analysis using Trizol Reagent Kit (Life Technologies, Monza, Italy). […] The amplified PCR products were quantified by measuring the calculated cycle thresholds (CT) of targets and β-actin mRNA. The amounts of specific mRNA in samples were calculated using the 2^-ΔΔCT method. The mean value of investigated mRNA levels in LPS or IL-1β-stimulated chondrocytes was chosen as the calibrator, and the results are expressed as % of reduction compared to LPS or IL-1β controls. The IC50 value was calculated by fitting the progress curves to the four-parameter IC50 equation using GraphPad prism software version 5.03 (Graphpad software, CA, USA). […]
# [2] = matrix not stated; no reference given; cited from earlier work
# NF-κB mRNA expression = NF-κB mRNA expression by RTqPCR in LPS-stimulated chondrocytes; type: cell-based, human; conditions: IC50 doses
# Protocol: as §1
# IL-1β mRNA expression = IL-1β mRNA expression (RTqPCR) in LPS-stimulated human articular chondrocytes; Chou-Talalay median-effect and combination index analysis; type: cell-based; conditions: Chondrocyte, 4 h, LPS 2 µg/ml
# Protocol: Human articular chondrocytes (ScienCell, CA, USA) were cultured in the specific Chondrocyte Medium (Cat. 4651; ScienCell, CA, USA) supplemented with 1% antibiotic mixture, in 5% CO2 humidified incubator at 37°C. The medium was renewed every 2 days and confluent chondrocytes were trypsinized, subdivided, and re-plated. In these experiments chondrocytes from passage 3 to 7 were used. Chondrocytes were cultured in six well culture plates at a density of 2.5 × 10^5 cells/well. Sixteen hours after seeding, a set of plates were treated with LPS (2 µg/ml; Escherichia coli serotype 055:B5; […] Total RNA was isolated from human chondrocytes for RTqPCR analysis using Trizol Reagent Kit (Life Technologies, Monza, Italy). […] RTqPCR was performed on both targets and endogenous control using SYBR Premix DimerEraser (Takara, Japan) and QuantStudio 6 Flex Real-Time PCR System (Applied Biosystems, CA, USA). The amplified PCR products were quantified by measuring the calculated cycle thresholds (CT) of targets and β-actin mRNA. The amounts of specific mRNA in samples were calculated using the 2^-ΔΔCT method. The mean value of investigated mRNA levels in LPS or IL-1β-stimulated chondrocytes was chosen as the calibrator, and the results are expressed as % of reduction compared to LPS or IL-1β controls. The IC50 value was calculated by fitting the progress curves to the four-parameter IC50 equation using GraphPad prism software version 5.03 (Graphpad software, CA, USA). Chou and Talalay multiple drug effect analysis was performed and it is based on the median-effect principle ([Chou and Talalay, 1984]; [Chou, 2006]). The Median Effect Equation states that fa/fu = (D/Dm) m, where D is the dose, fa and fu are the affected and the unaffected fractions, respectively, of IL-1β mRNA expression levels, by the dose D; Dm is the dose required to produce the median effect (i.e., IC50), and m is the Hill-type coefficient signifying the sigmoidicity of the dose–effect curve. […] The CI was calculated as: CI=[(D)1/(D50)1]+[(D) 2/(D50)2 […] The CI index was calculated using Grafit software.
# COL2A1 mRNA expression = assay: COL2A1 (type II collagen) mRNA expression by RTqPCR in chondrocytes stimulated with LPS or IL-1β; type: cell-based, human; conditions: IC50 doses
# Protocol: as §1
# [3] = curcumin/β-caryophyllene experiment, combination molar ratio 3.6:1, read-out: IC50, reduction of IL-1β mRNA
"IC50 (IL-1β mRNA expression; curcumin/flavocoxid experiment, combination molar ratio 7.3:1, read-out: IC50, reduction of IL-1β mRNA) [µM]",IC50 (IL-1β mRNA expression; [3]) [µM],Structure (SMILES),"Cell viability (cytotoxic effect), MTT [1]",STAT3 mRNA expression (STAT3 mRNA expression),half-life [2],NF-κB mRNA expression (NF-κB mRNA expression),COL2A1 (type II collagen) mRNA expression (COL2A1 mRNA expression)
14.3,13.6,COc1cc(/C=C/C(=O)CC(=O)/C=C/c2ccc(O)c(OC)c2)ccc1O [curcumin],did not affect chondrocytes viability,reduced,about 3 h,reduced,partially able to restore the mRNA control levels
–,48.9,C=C1CC/C=C(\C)CC[C@@H]2[C@@H]1CC2(C)C [β-caryophyllene],did not affect chondrocytes viability,reduced,–,reduced,partially able to restore the mRNA control levels
